System: pancreatic HIT cells (β-cell clusters)
Type: cell-based, hamster
Experimental: For trypsinization and splitting, trypsin-EDTA solution was added to a culture flask and incubated for 30 s while triturating with a transfer pipette. Serum was added to stop the digestive action of trypsin. Supernatant was removed after centrifugation at 1000 rpm for 2 min. Culture medium was added, and cells plated into glass bottom petri dishes (35 mm diameter, Matek, Ashland, Mass.) for incubation and subsequent observation.
Cell clusters, approximating to spheroids, appeared approximately two weeks after splitting. Their size ranged from 70 μm to 300 μm in diameter, depending on the time in culture.
A glucose microsensor was positioned adjacent to the cluster and self-referenced perpendicularly to the contour of the expected glucose gradient. The glucose sensor was self-referenced at 0.2 Hz between 60 and 80 μm (Δr of 20 μm) from the cluster surface to avoid H2O2 boundary artifacts. Flux measurements were done in HEPES-buffered solution containing 118 mM NaCl, 5.4 mM KCl, 2.4 mM CaCl2, 1.2 mM MgSO4, 1.2 mM KH2PO4, and 5 mM NaHCO3. All measurements were made with 5 mM glucose in the medium. To ensure that the apparent glucose signal was due to the glucose gradient and not the oxygen gradient, oxygen was provided by a ˜10 μm pipette located 10 μm from the cell cluster and approximately 50 μm from the glucose sensor to reverse the biological oxygen gradient. […] In situ calibration of the sensor was performed immediately after the flux measurements. Data were only accepted if sensor drift was less than ±5% over the experimental period, which was typically 30 min. All data were reported as means ±SEM unless otherwise mentioned.
The glucose sensor was self-referenced at 0.2 Hz between 60 and 80 μm (Δr of 20 μm) from the cluster surface. The aliquot of FCCP was dropped on the meniscus of the medium to minimize disturbance of the existing glucose gradient. All measurements were performed with 5 mM glucose in the bath.
Glucose metabolism was further studied with rotenone, an inhibitor of NADH-dependent respiration in mitochondria. […]

Compound | decrease in the level of glucose consumption (10 μM rotenone, after 10 min, 5 mM glucose in bath, oxygen source present, four clusters) [%] | glucose flux relative to the basal condition | initial increase in glucose flux [%]
C=C(C)[C@H]1Cc2c(ccc3c2O[C@@H]2COc4cc(OC)c(OC)cc4[C@@H]2C3=O)O1 [Rotenone, rotenone] | 74±5 |  | 
trifluoromethoxy carbonylcyanide phenylhydrazine [FCCP] |  | 56±6 % of the basal condition | 93±16

Reference: patent US6802957B2, “Self-referencing enzyme-based microsensor and method of use” (priority 2001, dated 2004)
